Patent US9522192B2 (EPITECH GROUP S.r.l., priority 2012, dated 2016)
Like-named read-outs stand apart in the source and are kept apart here.

Tests used:
Water solubility = format: physicochemical
[1] = system: carrageenan-induced hyperalgesia; assay: Mechanical hyperalgesia after λ-carrageenan injection into the paw, topical application; format: in vivo, mice; settings: for anti-hyperalgesic effect at earlier times: 2 and 4 h after application; for anti-hyperalgesic activity (paw withdrawal latency): topical on paw, dose equimolar to 1 mg PEA/paw, evaluated 2-96 h after carrageenan
Description: Male Swiss mice weighing 25 to 30 g were purchased from Harlan (Udine, Italy). They were housed in stainless steel cages in a room kept at 22±1° C. on a 12/12-h light/dark cycle. […] Each group of mice (n=6) was applied with 0.05 ml of ethanol solutions on dorsal surface of the left paw. After 5 minutes the animal received 50 μl of 1% λ-carrageenan in sterile saline injected into the treated paw. Absolute ethanol was used as vehicle in control animals. […] Mechanical hyperalgesia was assessed by measuring of latency (s) to withdraw the paw from a constant mechanical pressure exerted onto its dorsal surface. A 15-g calibrated glass cylindrical rod (diameter=10 mm) […] to a conical point (diameter=3 mm) was used to exert the mechanical force. The weight was suspended vertically between two rings attached to a stand and was free to move vertically. A cut off time of 90 sec. was used. Results are expressed as mean±S.E.M. of n experiments. All analyses were conducted using Graph-Pad Prism (GraphPad Software Inc., San Diego, Calif.). The significance of differences between groups was determined by Student t-test (for ex vivo experiments) and two-way analysis of variance (ANOVA) followed by Bonferroni post hoc tests for multiple comparisons (for in vivo experiments). Difference with P<0.05 (*) was considered statistically significant.

[2] = system: carrageenan-induced paw oedema; assay: Carrageenan-induced paw oedema, topical application; format: in vivo, mice; settings: for anti-inflammatory effect at earlier times: 2 and 4 h after application; for anti-inflammatory activity (paw volume / paw oedema): topical on paw, dose equimolar to 1 mg PEA/paw, evaluated 2-96 h after carrageenan
Description: Male Swiss mice weighing 25 to 30 g were purchased from Harlan (Udine, Italy). They were housed in stainless steel cages in a room kept at 22±1° C. on a 12/12-h light/dark cycle. […] Each group of mice (n=6) was applied with 0.05 ml of ethanol solutions on dorsal surface of the left paw. After 5 minutes the animal received 50 μl of 1% λ-carrageenan in sterile saline injected into the treated paw. Absolute ethanol was used as vehicle in control animals. […] Paw oedema development was measured by a plethysmometer (Ugo Basile, Milan, Italy). The increase in paw volume was evaluated as the difference between the paw volume measured at each time point and the basal paw volume measured at time 0 (before drug application and carrageenan injection). Results are expressed as mean±S.E.M. of n experiments. All analyses were conducted using Graph-Pad Prism (GraphPad Software Inc., San Diego, Calif.). The significance of differences between groups was determined by Student t-test (for ex vivo experiments) and two-way analysis of variance (ANOVA) followed by Bonferroni post hoc tests for multiple comparisons (for in vivo experiments). Difference with P<0.05 (*) was considered statistically significant.

[3] = Skin accumulation and PEA release after topical application on the paw (lipid extraction, HPLC)
Description: (§1) Frozen tissues samples were weighed and homogenized in a solution of methanol and a serine protease inhibitor, phenylmethylsulphonyl fluoride (PMSF, 1 mM). Then, homogenate tissues were subjected to methanol-chloroform-water (1:2:1, v/v/v) extraction. After centrifugation, the organic layer was carefully removed, transferred to another vial and purified by silica gel (60-Å, 230-400 mesh) micro-columns.
(§2) Molecules of interest were isolated by small-scale chromatography. Glass microcolumns (5 cm, ø 50 mm) were used. 1 ml of a mixture (1/1 v/v) of chloroform and silica gel (0.04-0.063 mm, 230-400 mesh, Macherey-Nagel) was used to load the columns. Samples were dissolved in 1 ml of chloroform and then loaded. Columns were washed with 1 ml of chloroform and 2 ml of chloroform/methanol (9/1 v/v), thus obtaining the fractions of interest that were collected and evaporated in vacuum. The extraction method was validated in blank experiments by treating skin with a known amount of each analyzed compound. Recovery percentages were calculated as well and they resulted higher than 85% for all the tested products.
(§3) HPLC analysis was performed on a Jasco apparatus (Jasco inc., Easton, Md., USA) composed by a quaternary gradient pump (PU 2089 Plus), a 25 μl Rheodyne injection valve and a multi-wave length UV detector (MD 2010 Plus). […] The specificity (absence of interfering peak from skin samples) was assessed as well.

[4] = mouse, in vivo
Description: as §1, §2, §3

[5] = 6-96 h after topical application
[6] = after local application, 1.72 mg/paw
[7] = after local application, 1.6 mg/paw

Compound “N-[2-methoxypolyethylene glycol(5000)-O-carbonyl-oxy-ethyl]-palmitamide [Example 7]” has a Water solubility (Water solubility) greater than 10000 µg/mL.
In the case of `CCCCCCCCCCCCCCCC(=O)NCCO` [PEA, Palmitoylethanolamide, reference compound], the “anti-hyperalgesic effect at earlier times” value [1] is reported as “significant”, the “anti-hyperalgesic effect at later times” value [1, 5] is reported as “no effect” and the “anti-hyperalgesic activity (paw withdrawal latency)” value [1] is reported as “markedly reduced”. For the same compound, the “anti-inflammatory effect at earlier times” value [2] was “significant”, the “anti-inflammatory effect at later times” value [2, 5] was “no effect” and the “anti-inflammatory activity (paw volume / paw oedema)” value [2] was “markedly reduced”. For the same compound, the “PEA levels in the skin” value ([3]; after 24 h) was “return to baseline”.
With `CCCCCCCCCCCCCCCC(=O)NCCOC(=O)CCC(=O)OCCOCCOCCO` [derivative 8b, N-Palmitoylethanolamine-O-(succinyl(triethylene glycol))] the “time from which anti-hyperalgesic activity is significant” value [1, 6] was no less than 2 days, the “anti-hyperalgesic activity (paw withdrawal latency)” value [1] was “significant” and the “time from which anti-inflammatory activity is significant” value [2, 6] was no less than 2 days. The “anti-inflammatory activity (paw volume / paw oedema)” value [2] was “significant” and the “accumulation in the skin” value [4] was “accumulate in the skin and release PEA”.
With `CCCCCCCCCCCCCCCC(=O)NCCOC(=O)CCC(=O)OCCOCCO` [derivative 8a, N-Palmitoylethanolamine-O-(succinyl(diethylene glycol))] the “anti-hyperalgesic effect at earlier times” value [1] was “No effect”, the “anti-hyperalgesic activity lasting up to” value [1, 7] was “up to 72 h” and the “anti-hyperalgesic activity (paw withdrawal latency)” value [1] was “significant”. The “anti-inflammatory effect at earlier times” value [2] was “No effect”, the “anti-inflammatory activity lasting up to” value [2, 7] was “up to 72 h” and the “anti-inflammatory activity (paw volume / paw oedema)” value [2] was “significant”. The “PEA release sustained / maintained up to” value ([3]; after topical application) was “up to 72 hours”, the “accumulation in the skin” value ([3]; after topical application) was “accumulate in the skin and release PEA” and the “kinetic release of PEA in the skin” value ([3]; after topical application) was “faster release”. The “start of PEA release (relevant amount of PEA detectable)” value ([3]; after topical application) was 2 h and the “total amount accumulated in the skin (PEA+derivative) relative to PEA alone” value ([3]; whole period of analysis) was roughly 10 times.
